For 20 compounds, inhibition results are on record in patent US8569302B2, “Inhibitors of flaviviridae viruses” (Gilead Sciences, Inc., priority 2009, dated 2013).

Each structure is given as a SMILES string.

As a reminder, the inhibition is the percentage by which the read-out fell short of the control. The low end stands for a response near the control, the high end for a response far below the control.

This assay relates to human hepatoma Huh-7 cell line harboring a HCV replicon. The assay can be described thus: HCV replicon assay (inhibition of viral replication, luciferase readout). It is filed as cell-based. The conditions noted are these: Hepatitis C virus, 72 h, Huh-7 HCV replicon cells, 3 days incubation. The essentials: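 Huh-7 replicon cells were exposed to 10-point 3-fold compound dilutions (0.44% DMSO) for 3 days at 37 °C. Replicon replication was read by Dual-Glo luciferase, with background from protease-inhibitor wells subtracted, and viability by calcein AM. EC50/CC50 came from a Hill-equation fit versus DMSO controls.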
`C[C@H]1CC[C@H](C(=O)N(c2cc(C#CC3CC3)sc2C(=O)O)[C@H]2CC[C@H](Oc3ccccn3)CC2)CC1` [Compound 229, 5-(2-cyclopropylethynyl)-3-(4-methyl-N-(4-(pyridin-2-yloxy)cyclohexyl)cyclohexanecarboxamido)thiophene-2-carboxylic acid] showed an inhibition at 2 µM of 82.6%. The compound `CC(C)(C)C#Cc1cc(N(C(=O)[C@H]2CC[C@H](C)CC2)[C@H]2CC[C@H](O[C@@H]3CCN(C(=O)OC(C)(C)C)C3)CC2)c(C(=O)O)s1` [Compound 230, 3-(N-(4-((R)-1-(tert-butoxycarbonyl)pyrrolidin-3-yloxy)cyclohexyl)-4-methylcyclohexanecarboxamido)-5-(3,3-dimethylbut-1-ynyl)thiophene-2-carboxylic acid] yielded an inhibition at 2 µM of 98.4%. The compound `CC(C)(C)C#Cc1cc(N(C(=O)[C@H]2CC[C@H](C)CC2)[C@H]2CC[C@H](O[C@@H]3CCNC3)CC2)c(C(=O)O)s1` [Compound 231, 5-(3,3-dimethylbut-1-ynyl)-3-(4-methyl-N-(4-((R)-pyrrolidin-3-yloxy)cyclohexyl)cyclohexanecarboxamido)thiophene-2-carboxylic acid] registered an inhibition at 2 µM of 99.9%.

`CC1=CCC(C(=O)N(c2cc(C#CC(C)(C)C)sc2C(=O)O)[C@H]2CC[C@H](O[C@H]3CCOC3)CC2)[C@@H](C)C1` (stereo partly drawn) [Compound 301, 5-(3,3-dimethyl-but-1-ynyl)-3-{(4,6S-dimethyl-cyclohex-3-enecarbonyl)-[4-(tetrahydro-furan-3S-yloxy)-trans-cyclohexyl]-amino}-thiophene-2-carboxylic acid] returned an inhibition at 2 µM of 99.8%.

Turning to `CC1=CCC(C(=O)N(c2cc(C#CC(C)(C)C)sc2C(=O)O)[C@H]2CC[C@H](O[C@H]3CCOC3)CC2)[C@H](C)C1` (stereo partly drawn) [Compound 304, 5-(3,3-dimethyl-but-1-ynyl)-3-{(4,6R-dimethyl-cyclohex-3-enecarbonyl)-[4-(tetrahydro-furan-3S-yloxy)-trans-cyclohexyl]-amino}-thiophene-2-carboxylic acid], the inhibition at 2 µM was 100%. The value for `C[C@@H]1CC[C@@H](C(=O)N(c2cc(C#CC(C)(C)C)sc2C(=O)O)[C@H]2CC[C@H](O[C@H]3CCOC3)CC2)[C@@H](O)C1` [Compound 309, 5-(3,3-dimethylbut-1-ynyl)-3-((1R,2S,4R)-2-hydroxy-4-methyl-N-(4-(tetrahydrofuran-3S-yloxy)cyclohexyl)cyclohexanecarboxamido)thiophene-2-carboxylic acid] was 100%; that for `C[C@@H]1CC[C@@H](C(=O)N(c2cc(C#CC(C)(C)C)sc2C(=O)O)[C@H]2CC[C@H](O[C@@H]3CCOC3)CC2)[C@@H](O)C1` [Compound 310, 5-(3,3-dimethylbut-1-ynyl)-3-((1R,2S,4R)-2-hydroxy-4-methyl-N-(4-(tetrahydrofuran-3R-yloxy)cyclohexyl)cyclohexanecarboxamido)thiophene-2-carboxylic acid] was 100%. For the compound `CC1CCC(C(=O)N(c2cc(C#CC(C)(C)COC3CCCCO3)sc2C(=O)O)C2CCC(Oc3ccccn3)CC2)CC1` (centres unmarked) [Compound 311, 5-[3,3-Dimethyl-4-(tetrahydro-pyran-2-yloxy)-but-1-ynyl]-3-{(4-methyl-cyclohexanecarbonyl)-[4-(pyridin-2-yloxy)-cyclohexyl]-amino}-thiophene-2-carboxylic acid], at 2 µM the inhibition was 95.2%. `CC(C)(C#Cc1cc(N(C(=O)[C@H]2CC[C@H](C)CC2)[C@H]2CC[C@H](OC3CCOC3)CC2)c(C(=O)O)s1)CCO` (some centres unmarked) [Compound 314, 5-(5-Hydroxy-3,3-dimethyl-pent-1-ynyl)-3-{(4-methyl-cyclohexanecarbonyl)-[4-(tetrahydro-furan-3-yloxy)-cyclohexyl]-amino}-thiophene-2-carboxylic acid]: the inhibition at 2 µM stood at 99.9%. `CC(C)(C)C#Cc1cc(N(C(=O)[C@H]2CC[C@H](C)CC2)[C@H]2CC[C@H](O[C@H]3COC[C@H]3O)CC2)c(C(=O)O)s1` [Compound 317, 5-(3,3-dimethyl-but-1-ynyl)-3-[[4-(4-cis-hydroxy-tetrahydro-furan-3-yloxy)-cyclohexyl]-(4-methyl-cyclohexanecarbonyl)-amino]-thiophene-2-carboxylic acid]: the inhibition at 2 µM came out at 100%. `CC(C)(C)C#Cc1cc(N(C(=O)[C@H]2CC[C@H](C)CC2)[C@H]2CC[C@H](O[C@H]3COC[C@@H]3O)CC2)c(C(=O)O)s1` [Compound 318, 5-(3,3-Dimethyl-but-1-ynyl)-3-[[4-(4-trans-hydroxy-tetrahydro-furan-3-yloxy)-cyclohexyl]-(4-methyl-cyclohexanecarbonyl)-amino]-thiophene-2-carboxylic acid] returned an inhibition at 2 µM of 99.7%.

In the case of `CC1CCC(C(=O)N(c2cc(C#CC(C)(C)C)sc2C(=O)O)[C@H]2CCN(CCOc3ccccn3)C2)CC1` (some centres unmarked) [Compound 321], testing at 2 µM gave an inhibition of 99.9%. As to `CC(C)(C)C#Cc1cc(N(C(=O)[C@H]2CC[C@H](C)CC2)[C@H]2CC[C@H](O[C@@H]3CCOC3)CC2)c(C(=O)O)s1` [Compound 322], 2 µM produced 100% inhibition. For `C=C1CCC(C(=O)N(c2cc(C#CC(C)(C)C)sc2C(=O)O)[C@H]2CC[C@H](Oc3cc(CN(C)C)ccn3)CC2)CC1` [Compound 325, 3-[[4-(4-dimethylaminomethyl-pyridin-2-yloxy)-cyclohexyl]-(4-methylene-cyclohexanecarbonyl)-amino]-5-(3,3-dimethyl-but-1-ynyl)-thiophene-2-carboxylic acid], the inhibition at 2 µM came to 100%. Take `CC(C)(C)C#Cc1cc(N(C(=O)[C@H]2CC[C@H](C)CC2)[C@H]2CC[C@H](Oc3nccc(=O)[nH]3)CC2)c(C(=O)O)s1` [Compound 326, 5-(3,3-Dimethyl-but-1-ynyl)-3-{(4-methyl-cyclohexanecarbonyl)-[4-(6-oxo-1,6-dihydro-pyrimidin-2-yloxy)-cyclohexyl]-amino}-thiophene-2-carboxylic acid]: the inhibition at 2 µM was 99.9%. The compound `CC(C)(C)C#Cc1cc(N(C(=O)[C@H]2CC[C@H](C)CC2)[C@H]2CC[C@H](O[C@H]3CCOC3)CC2)c(C(=O)O)s1` [Compound 331, 5-(3,3-Dimethyl-but-1-ynyl)-3-{(trans-4-methyl-cyclohexanecarbonyl)-[4-(tetrahydro-furan-3(S)-yloxy)-trans-cyclohexyl]-amino}-thiophene-2-carboxylic acid] registered an inhibition at 2 µM of 100%. In turn, `CC(C)(C)C#Cc1cc(N(C(=O)[C@H]2CC[C@H](C)CC2)[C@H]2CC[C@@H](O[C@H]3CCOC3)CC2)c(C(=O)O)s1` [Compound 332, 5-(3,3-Dimethyl-but-1-ynyl)-3-{(trans-4-methyl-cyclohexanecarbonyl)-[4-(tetrahydro-furan-3(S)-yloxy)-cis-cyclohexyl]-amino}-thiophene-2-carboxylic acid] showed an inhibition at 2 µM of 99.9%. Turning to `CC1=CC[C@@H](C(=O)N(c2cc(C#CC(C)(C)C)sc2C(=O)O)[C@H]2CC[C@H](O[C@H]3CCOC3)CC2)CC1` [Compound 333], the inhibition at 2 µM came to 100%. `CC1=CC[C@@H](C(=O)N(c2cc(C#CC(C)(C)C)sc2C(=O)O)[C@H]2CC[C@H](OC3CCOC3)CC2)CC1` (some centres unmarked) [Compound 334] had an inhibition at 2 µM of 99.9%.

`CC1=CC[C@H](C(=O)N(c2cc(C#CC(C)(C)C)sc2C(=O)O)[C@H]2CC[C@H](OC3CCOC3)CC2)CC1` (some centres unmarked) [Compound 335] registered an inhibition at 2 µM of 99.9%.
